Laboratory results reported in US12606561B2, “Substituted pyrazolo[1,5-a][1,3,5]triazines as CDK inhibitors” (QURIENT CO., LTD., priority 2018, dated 2026).

How the values were obtained:
CDK5/p25 = molecular target: T1, CDK5/p25 (Homo sapiens, UniProt Q00535); test: Enzymatic assay for CDK5 (LANCE Ultra kinase assay, FRET based); type: biochemical; conditions: ATP at Km
T1 construct: purchased Invitrogen PR8543B
Protocol: (§1) Enzymatic Binding Assay Protocol for CDK1, CDK2, CDK5 and CDK7
(§2) Inhibition activity of the respective compound on CDK kinase under Km value of ATP was tested in FRET based The LANCE® Ultra kinase assay (Perkin Elmer), which uses a ULight™-labeled peptide substrate and an appropriate Europium-labeled anti-phospho-antibody. Test compounds were made with DMSO solutions, and then 4-fold serial dilutions for 8 doses were prepared using automated liquid handler (POD™ 810, Labcyte) and 80 nL/well of diluted compound solutions were added into the 384-well plates (Greiner, Cat #784075). And then 68 nM of ULight-MBP peptide (Perkin Elmer, Cat #TRF0109-M) and 5 ul/well of ATP (Sigma, Cat #A7699) were added to the plate. After 1 min centrifugation at 1000 rpm, purified CDKs/Cyclin complex were added with the following concentrations respectively. 24 uM for CDK1/Cyclin B (Invitrogen, Cat #PR4768C), 22 uM for CDK2/Cyclin A (Invitrogen, Cat #PV6290), 10 uM for CDK5/p25 (Invitrogen, Cat #PR8543B) and […] for CDK7/Cyclin H/MNAT1 (Invitrogen, Cat #PR6749B) were added to each corresponding plate for CDK1, CDK2, CDK5 and CDK7. Incubate at 23° C. for 60 min and then Eu-labeled anti-phospho-Myelin Basic Protein (PE, Cat #TRF0201-M) and EDTA (Invitrogen, Cat #15575038) mixture in Lance Detection Buffer (Perkin Elmer, Cat #CR97100) was added in each well. After additional incubation at 23° C. for 60 min, test articles were measured the fluorescence using Envision leader (Perkin Elmer, USA) [Laser as excitation light; […] as the first and the second emission filter]. Data were analyzed using XL Fit software.

CDK2/Cyclin A = molecular target: T2, CDK2/Cyclin A (Homo sapiens, UniProt P24941); test: Enzymatic assay for CDK2 (LANCE Ultra kinase assay, FRET based); type: biochemical; conditions: ATP at Km
T2 construct: purchased Invitrogen PV6290
Protocol: as §1, §2

A2780 = A2780 viability assay (CellTiter-Glo, 72 hours); type: cell-based; conditions: Homo sapiens; A2780 cells
Protocol: Human […] cell line, MV4-11_(ATCC, Cat #CRL-9591), NSCLC (Non-small cell lung cancer) cell line H460 (ATCC, Cat #HTB-177), A2780 (ECACC, Cat #93112519) and OVCAR-3(ATCC, Cat #HTB-161) were obtained from ATCC. Cells were grown in RPMI-1640 media (Invitrogen, Cat #22400-089) supplemented with 10% FBS (Invitrogen, Cat #10099141) and 1% penicillin/streptomycin (Invitrogen, Cat #15070063) and cultured at 37° C., 5% CO2 in a humidified chamber. All cell lines were routinely tested for mycoplasma.
To effect of the CDK7 inhibitor to inhibit the growth of target cancer cells, viability assay were conducted a 72 hour time period. Briefly, the candidate cell line was plated in 96 well plate at the following density of cells respectively. 1×10^4 cells/well for MV4-11, 5×10^3 for H460 and OVCAR-3, and 1×10^3 for A2780. After 24 hours, the cells were treated with various concentrations of the compound (ranging from 0.0015 uM to 10 uM). DMSO solvent without compound served as a control and final DMSO concentration lest than 0.1%. After 72 hours of incubation at 37° C., 5% CO2 incubator, cells were analyzed for the viability using the CellTiter-Glo Luminescent Cell Viability Assay (Promega, Cat #G7570). All viability assays were performed in duplicate and Luminescence was read using an Envision (Perkin Elmer, USA). Data was analyzed using XLfit software.

CDK1/Cyclin B = molecular target: T3, CDK1/Cyclin B (Homo sapiens, UniProt P06493); test: Enzymatic assay for CDK1 (LANCE Ultra kinase assay, FRET based); type: biochemical; conditions: ATP at Km; read-out: CDK1 enzymatic activity IC50
T3 construct: purchased Invitrogen PR4768C
Protocol: as §1
(§3) Inhibition activity of the respective compound on CDK kinase under Km value of ATP was tested in FRET based The LANCE® Ultra kinase assay (Perkin Elmer), which uses a ULight™-labeled peptide substrate and an appropriate Europium-labeled anti-phospho-antibody. […] After 1 min centrifugation at 1000 rpm, purified CDKs/Cyclin complex were added with the following concentrations respectively. […] Data were analyzed using XL Fit software.

CDK7/Cyclin H/MNAT1 = molecular target: T4, CDK7/Cyclin H/MNAT1 (Homo sapiens, UniProt P50613); test: Enzymatic assay for CDK7 (LANCE Ultra kinase assay, FRET based); type: biochemical; conditions: for IC50: ATP at Km
T4 construct: purchased Invitrogen PR6749B
Protocol: as §1, §3

T3 sequence (P06493 whole entry): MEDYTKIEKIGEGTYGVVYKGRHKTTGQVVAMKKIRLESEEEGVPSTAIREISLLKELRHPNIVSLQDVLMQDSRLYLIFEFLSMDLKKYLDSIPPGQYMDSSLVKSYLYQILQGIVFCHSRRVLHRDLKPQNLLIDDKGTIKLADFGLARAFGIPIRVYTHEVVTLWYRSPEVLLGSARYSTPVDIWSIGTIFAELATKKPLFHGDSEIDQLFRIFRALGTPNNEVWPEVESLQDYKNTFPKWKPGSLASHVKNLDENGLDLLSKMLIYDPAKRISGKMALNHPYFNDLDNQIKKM
T3 sequence (P14635 whole entry partner): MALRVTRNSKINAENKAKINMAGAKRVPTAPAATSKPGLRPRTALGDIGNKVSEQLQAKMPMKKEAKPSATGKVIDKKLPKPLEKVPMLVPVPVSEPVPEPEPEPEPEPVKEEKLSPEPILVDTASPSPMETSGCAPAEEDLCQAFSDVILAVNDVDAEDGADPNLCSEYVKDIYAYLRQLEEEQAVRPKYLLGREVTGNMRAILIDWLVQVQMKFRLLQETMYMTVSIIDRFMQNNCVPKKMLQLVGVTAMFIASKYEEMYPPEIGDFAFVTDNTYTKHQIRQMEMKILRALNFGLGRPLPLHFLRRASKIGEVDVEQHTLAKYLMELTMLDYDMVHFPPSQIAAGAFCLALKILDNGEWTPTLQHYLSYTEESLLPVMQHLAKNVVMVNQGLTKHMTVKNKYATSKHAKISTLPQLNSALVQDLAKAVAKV
T1 sequence (Q00535 whole entry): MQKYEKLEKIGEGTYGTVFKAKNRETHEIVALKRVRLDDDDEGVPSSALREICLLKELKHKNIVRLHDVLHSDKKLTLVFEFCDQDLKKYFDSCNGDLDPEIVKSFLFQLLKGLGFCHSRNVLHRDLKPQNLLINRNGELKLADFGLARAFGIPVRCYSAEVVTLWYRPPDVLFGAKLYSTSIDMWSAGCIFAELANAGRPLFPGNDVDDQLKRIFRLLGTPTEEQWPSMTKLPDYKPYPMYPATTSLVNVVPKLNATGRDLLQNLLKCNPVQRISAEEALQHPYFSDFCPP
T1 sequence (Q15078 99-307 partner limits assumed): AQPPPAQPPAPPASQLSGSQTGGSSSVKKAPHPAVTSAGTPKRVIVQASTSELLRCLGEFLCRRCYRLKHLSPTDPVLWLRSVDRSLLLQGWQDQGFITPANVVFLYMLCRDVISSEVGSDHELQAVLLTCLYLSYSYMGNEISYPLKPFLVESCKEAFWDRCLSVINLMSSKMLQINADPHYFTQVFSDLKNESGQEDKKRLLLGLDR
T4 sequence (P50613 whole entry): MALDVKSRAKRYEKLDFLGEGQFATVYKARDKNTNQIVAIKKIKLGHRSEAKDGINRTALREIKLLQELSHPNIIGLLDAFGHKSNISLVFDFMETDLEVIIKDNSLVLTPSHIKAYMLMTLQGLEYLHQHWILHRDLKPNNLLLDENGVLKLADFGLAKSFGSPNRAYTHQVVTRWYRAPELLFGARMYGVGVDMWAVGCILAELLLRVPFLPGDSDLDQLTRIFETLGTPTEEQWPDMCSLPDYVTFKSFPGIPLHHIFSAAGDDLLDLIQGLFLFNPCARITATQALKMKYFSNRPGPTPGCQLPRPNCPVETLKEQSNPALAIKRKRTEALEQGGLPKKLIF
T4 sequence (P51946 whole entry partner): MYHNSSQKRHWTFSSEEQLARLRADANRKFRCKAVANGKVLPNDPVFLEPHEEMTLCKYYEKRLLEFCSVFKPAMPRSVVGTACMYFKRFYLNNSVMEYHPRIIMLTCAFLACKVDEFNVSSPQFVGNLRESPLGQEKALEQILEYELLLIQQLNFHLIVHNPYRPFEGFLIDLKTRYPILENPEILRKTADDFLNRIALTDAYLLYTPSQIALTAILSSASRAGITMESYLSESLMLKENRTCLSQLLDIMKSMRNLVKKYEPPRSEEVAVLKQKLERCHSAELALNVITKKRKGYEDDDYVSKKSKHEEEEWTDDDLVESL
T4 sequence (P51948 whole entry partner): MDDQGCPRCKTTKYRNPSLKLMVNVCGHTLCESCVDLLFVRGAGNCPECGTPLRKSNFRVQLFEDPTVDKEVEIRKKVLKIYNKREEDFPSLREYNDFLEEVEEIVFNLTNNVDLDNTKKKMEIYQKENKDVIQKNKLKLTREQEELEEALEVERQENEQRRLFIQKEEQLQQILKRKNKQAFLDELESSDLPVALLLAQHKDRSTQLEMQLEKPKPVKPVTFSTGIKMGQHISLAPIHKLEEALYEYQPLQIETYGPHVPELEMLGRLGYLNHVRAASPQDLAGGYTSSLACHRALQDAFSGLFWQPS

Row | Structure (SMILES) | IC50 (CDK5/p25) | IC50 (CDK2/Cyclin A) | IC50 (A2780) | IC50 (CDK1/Cyclin B) | IC50 (CDK7/Cyclin H/MNAT1) | CDK1/CDK7: Selectivity of CDK7 inhibition over CDK1 inhibition (CDK7/Cyclin H/MNAT1) | CDK2/CDK7: Selectivity of CDK7 inhibition over CDK2 inhibition (CDK7/Cyclin H/MNAT1) | CDK5/CDK7: Selectivity of CDK7 inhibition over CDK5 inhibition (CDK7/Cyclin H/MNAT1)
1 | CC(C)c1cnn2c(NCc3ccccc3-c3nccc4cc(NC(=O)/C=C/CN(C)C)ccc34)nc(S(C)(=O)=O)nc12 [Compound 202] | > 1000 nM | > 1000 nM | < 1000 nM | > 1000 nM | < 100 nM | B (B indicates 50 < [fold] ≤ 500) | B (B indicates 50 < [fold] ≤ 500) | B (B indicates 50 < [fold] ≤ 500)
2 | C=CC(=O)N1CCc2c(ccnc2-c2ccccc2CNc2nc(OC3CCC(C)(C)NC3)nc3c(C(C)C)cnn23)C1 (stereo not drawn) [Compound 203] | > 1000 nM | > 1000 nM | < 1000 nM | > 1000 nM | < 100 nM | A (A indicates [fold] > 500) | A (A indicates [fold] > 500) | A (A indicates [fold] > 500)
3 | CC(C)c1cnn2c(NCc3ccccc3-c3nccc4cc(NC(=O)/C=C/CN(C)C)ccc34)cc(C(F)(F)F)nc12 [Compound 204] | > 1000 nM | > 1000 nM | < 1000 nM | > 1000 nM | < 100 nM | A (A indicates [fold] > 500) | A (A indicates [fold] > 500) | A (A indicates [fold] > 500)
4 | C=C(Br)C(=O)Nc1ccc2c(-c3ccccc3CNc3nc(NC[C@H]4CCNC[C@@H]4O)nc4c(C(C)C)cnn34)nccc2c1 [Compound 205] | > 1000 nM | > 1000 nM | < 1000 nM | > 1000 nM | < 100 nM | B (B indicates 50 < [fold] ≤ 500) | B (B indicates 50 < [fold] ≤ 500) | B (B indicates 50 < [fold] ≤ 500)
5 | C=C(Cl)C(=O)Nc1ccc2c(-c3ccccc3CNc3nc(NC[C@H]4CCNC[C@@H]4O)nc4c(C(C)C)cnn34)nccc2c1 [Compound 206] | > 1000 nM | > 1000 nM | < 1000 nM | > 1000 nM | < 100 nM | A (A indicates [fold] > 500) | A (A indicates [fold] > 500) | A (A indicates [fold] > 500)
6 | C=C(C)C(=O)Nc1ccc2c(-c3ccccc3CNc3nc(Nc4cccnc4)nc4c(C(C)C)cnn34)nccc2c1 [Compound 207] | > 1000 nM | > 1000 nM | < 1000 nM | > 1000 nM | 100 to 1000 nM | B (B indicates 50 < [fold] ≤ 500) | B (B indicates 50 < [fold] ≤ 500) | B (B indicates 50 < [fold] ≤ 500)
7 | C=C(C)C(=O)Nc1ccc2c(-c3ccccc3CNc3cc(C(F)(F)F)nc4c(C(C)C)cnn34)nccc2c1 [Compound 208] | > 1000 nM | > 1000 nM | 1000 to 10000 nM | > 1000 nM | 100 to 1000 nM | B (B indicates 50 < [fold] ≤ 500) | B (B indicates 50 < [fold] ≤ 500) | B (B indicates 50 < [fold] ≤ 500)
8 | C=C(Cl)C(=O)Nc1ccc2c(-c3ccccc3CNc3nc(N[C@H]4CC[C@H](OC)CC4)nc4c(C(C)C)cnn34)nccc2c1 [Compound 209] | > 1000 nM | > 1000 nM | < 1000 nM | > 1000 nM | < 100 nM | A (A indicates [fold] > 500) | A (A indicates [fold] > 500) | A (A indicates [fold] > 500)
9 | C=CC(=O)Nc1ccc2c(-c3ccccc3CNc3nc(N4CCN(CC(F)(F)F)CC4)nc4c(C(C)C)cnn34)nccc2c1 [Compound 210] | > 1000 nM | > 1000 nM | < 1000 nM | > 1000 nM | < 100 nM | B (B indicates 50 < [fold] ≤ 500) | B (B indicates 50 < [fold] ≤ 500) | B (B indicates 50 < [fold] ≤ 500)
10 | C=CC(=O)Nc1ccc2c(-c3ccccc3CNc3nc(N4CCNC(C(F)(F)F)C4)nc4c(C(C)C)cnn34)nccc2c1 (stereo not drawn) [Compound 211] | > 1000 nM | > 1000 nM | < 1000 nM | > 1000 nM | < 100 nM | A (A indicates [fold] > 500) | A (A indicates [fold] > 500) | A (A indicates [fold] > 500)

The next lines start with the values.

Row | IC50 (CDK5/p25) | IC50 (CDK2/Cyclin A) | IC50 (A2780) | IC50 (CDK1/Cyclin B) | IC50 (CDK7/Cyclin H/MNAT1) | CDK1/CDK7: Selectivity of CDK7 inhibition over CDK1 inhibition (CDK7/Cyclin H/MNAT1) | CDK2/CDK7: Selectivity of CDK7 inhibition over CDK2 inhibition (CDK7/Cyclin H/MNAT1) | CDK5/CDK7: Selectivity of CDK7 inhibition over CDK5 inhibition (CDK7/Cyclin H/MNAT1) | Structure (SMILES)
11 | > 1000 nM | > 1000 nM | < 1000 nM | > 1000 nM | < 100 nM | A (A indicates [fold] > 500) | A (A indicates [fold] > 500) | A (A indicates [fold] > 500) | C=CC(=O)Nc1ccc2c(-c3ccccc3CNc3cc(C4CC4)nc4c(C(C)C)cnn34)nccc2c1 [Compound 197]
12 | > 1000 nM | > 1000 nM | < 1000 nM | > 1000 nM | < 100 nM | B (B indicates 50 < [fold] ≤ 500) | B (B indicates 50 < [fold] ≤ 500) | B (B indicates 50 < [fold] ≤ 500) | C=CC(=O)Nc1ccc2c(-c3ccccc3CNc3cc(C(F)(F)F)nc4c(C(C)C)cnn34)nccc2c1 [Compound 198]
13 | > 1000 nM | > 1000 nM | < 1000 nM | > 1000 nM | < 100 nM | A (A indicates [fold] > 500) | A (A indicates [fold] > 500) | A (A indicates [fold] > 500) | C=C(F)C(=O)N1CCc2c(ccnc2-c2ccccc2CNc2nc(OC3CCC(C)(C)NC3)nc3c(C(C)C)cnn23)C1 (stereo not drawn) [Compound 199]
14 | > 1000 nM | > 1000 nM | < 1000 nM | > 1000 nM | < 100 nM | B (B indicates 50 < [fold] ≤ 500) | B (B indicates 50 < [fold] ≤ 500) | B (B indicates 50 < [fold] ≤ 500) | C=CC(=O)Nc1ccc2c(-c3ccccc3CNc3nc(-c4cccnc4)nc4c(C(C)C)cnn34)nccc2c1 [Compound 200]
15 | > 1000 nM | > 1000 nM | < 1000 nM | > 1000 nM | < 100 nM | B (B indicates 50 < [fold] ≤ 500) | B (B indicates 50 < [fold] ≤ 500) | B (B indicates 50 < [fold] ≤ 500) | C=CC(=O)Nc1ccc2c(-c3ccccc3CNc3nc(-c4ccncc4)nc4c(C(C)C)cnn34)nccc2c1 [Compound 201]
